Results from US20230061432A1, “NEW TECHNOLOGY TO CONJUGATE THE TACCALONOLIDE MICROTUBULE STABILIZERS WITH LINKERS/PAYLOADS” (priority 2019, published 2023).

Key:
HeLa cells = assay: sulforhodamine B (SRB) antiproliferative assay; type: cell-based, human; conditions: Homo sapiens, HeLa; Table 5; read-out: GI50 in HeLa
Text: HCC1806 (CRL-2335) and HCC1937 (CRL-2336) human triple-negative breast cancer cells, HeLa (CCL-2) cervical cancer cells and SK-OV-3 (HTB-77) ovarian cancer cells were obtained from ATCC (Manassas, Va.) and validated by STR profiling (Genetica). SK-OV-3 cells stably overexpressing Pgp by adenoviral-mediated expression of MDR1 were obtained from Dr. Susan Kane and subcloned by limiting dilution to isolate the single-cell clones utilized in these studies as SK-OV-3-MDR-1-6/6 (Risinger, A. L. et al. (2008) Cancer Res. 68, 8881-8888). A single-cell clone from transfection of HeLa cells with βIII-tubulin, designated wild type βIII, was constructed and obtained from Dr. Richard Luduena (Risinger, A. L. et al. (2008) Cancer Res. 68, 8881-8888). HCC1806 and HCC1937 cells were cultured in RPMI 1640 media (Corning) with 10% FBS (Cellgro) and 50 μg/mL gentamicin (Gibco). HeLa, […] expressing HeLa, SK-OV-3 and SK-OV-3/MDR-1-6/6 cells were grown in BME media with Earle's salts (Gibco) with 10% FBS, 1× final 1% GlutaMax™ Supplement (Gibco), and […] gentamicin. The use of HeLa cells allows for the direct comparison of the in vitro potency as compared to other compounds of this class, which have been predominantly reported in this line and compound potencies are consistent among three additional cancer cell lines. HeLa cells were also used for ectopic expression of tubulin mutants due to the high degree of transfectability of this cell line. Cells were tested for mycoplasma contamination using the Mycoplasma Detection Kit-Quick Test (Cat: B39032, Lot: JW004).
The sulforhodamine B (SRB) assay was utilized to examine the antiproliferative and cytotoxic effects of the compounds (Skehan, P. et al. (1990) J. Natl. Cancer Inst. 82, 1107-1112; Vichai and Kirtikara (2006) Nat. Protoc. 1, 1112-1116). Approximately 2,000 cells per well (for SK-OV-3, HeLa and βIII-tubulin expressing HeLa) or 4,000 cells per well (for HCC1806 and HCC1937) were seeded in 96-well plates. For each biological replicate, cells were treated in triplicate with each concentration of compound or vehicle control for 48 h in a final volume of 200 μL. The plates were fixed with 10% trichloroacetic acid for protein precipitation of adherent cells and then washed with distilled water. 100 μL of SRB dye, which binds protein stoichiometrically, was added and then unbound dye removed with 1% acetic acid followed by the addition of 200 μL 10 mM Tris to solubilize the dye, which was quantified by absorbance at 560 nm. The percent growth of treated cells relative to the density at the time of drug addiction was calculated as compared to vehicle treated cells.

[1] = unprotected form; Mottram et al. 2006; cited from earlier work

| Compound | GI50 (HeLa cells) [µM] | pKa [1] |
| --- | --- | --- |
| CC(=O)O[C@H]1[C@H]2[C@@H]([C@@H](O)[C@H](NC(=O)CCCN=[N+]=[N-])[C@H]3C[C@@H]4O[C@@H]4[C@H](OC(C)=O)[C@]23C)[C@@H]2[C@@H](O)[C@@H]3[C@H]([C@H](C)[C@H]4O[C@]45OC(=O)[C@@](C)(O)[C@]35C)[C@@]2(C)[C@H]1OC(C)=O [152D] | 0.12 |  |
| CC(=O)O[C@H]1[C@H]2[C@@H]([C@@H](O)[C@@H](NC(=O)CCCN=[N+]=[N-])[C@H]3C[C@@H]4O[C@@H]4[C@H](OC(C)=O)[C@]23C)[C@@H]2[C@@H](O)[C@@H]3[C@H]([C@H](C)[C@H]4O[C@]45OC(=O)[C@@](C)(O)[C@]35C)[C@@]2(C)[C@H]1OC(C)=O [152E] | 0.09 |  |
| CC(=O)O[C@H]1[C@H]2[C@@H]([C@@H](O)[C@@H](NC(=O)CCCn3cc(CNC(=O)c4ccc(-c5c6cc(F)c(=O)cc-6oc6cc(O)c(F)cc56)c(C(=O)O)c4)nn3)[C@H]3C[C@@H]4O[C@@H]4[C@H](OC(C)=O)[C@]23C)[C@@H]2[C@@H](O)[C@@H]3[C@H]([C@H](C)[C@H]4O[C@]45OC(=O)[C@@](C)(O)[C@]35C)[C@@]2(C)[C@H]1OC(C)=O [154B] | > 10 |  |
| CC(=O)O[C@H]1[C@H]2[C@@H]([C@@H](O)[C@@H](NC(=O)CCCn3cc(CNC(=O)CCCC[C@@H]4SC[C@@H]5NC(=O)N[C@@H]54)nn3)[C@H]3C[C@@H]4O[C@@H]4[C@H](OC(C)=O)[C@]23C)[C@@H]2[C@@H](O)[C@@H]3[C@H]([C@H](C)[C@H]4O[C@]45OC(=O)[C@@](C)(O)[C@]35C)[C@@]2(C)[C@H]1OC(C)=O [154C] | > 10 |  |
| CC(=O)Oc1cc2c(cc1F)C1(OC(=O)c3cc(C(=O)NCc4cn(CCCC(=O)N[C@@H]5[C@H](O)[C@H]6[C@@H]7[C@@H](O)[C@@H]8[C@H]([C@H](C)[C@H]9O[C@]9%10OC(=O)[C@@](C)(O)[C@]8%10C)[C@@]7(C)[C@@H](OC(C)=O)[C@@H](OC(C)=O)[C@@H]6[C@]6(C)[C@@H]5C[C@@H]5O[C@@H]5[C@@H]6OC(C)=O)nn4)ccc31)c1cc(F)c(OC(C)=O)cc1O2 [154J] | > 10 |  |
| CC(=O)O[C@H]1[C@H]2[C@@H]([C@@H](O)[C@@H](NC(=O)CCCn3cc(COc4cc5c(cc4F)C4(OC(=O)c6ccccc64)c4cc(F)c(O)cc4O5)nn3)[C@H]3C[C@@H]4O[C@@H]4[C@H](OC(C)=O)[C@]23C)[C@@H]2[C@@H](O)[C@@H]3[C@H]([C@H](C)[C@H]4O[C@]45OC(=O)[C@@](C)(O)[C@]35C)[C@@]2(C)[C@H]1OC(C)=O (some centres unmarked) [155F] | 3.7 |  |
| CC(=O)O[C@H]1[C@H]2[C@@H]([C@@H](O)[C@@H](NC(=O)CCCn3cc(COc4ccc5c(c4)Oc4cc(O)ccc4C54OC(=O)c5ccccc54)nn3)[C@H]3C[C@@H]4O[C@@H]4[C@H](OC(C)=O)[C@]23C)[C@@H]2[C@@H](O)[C@@H]3[C@H]([C@H](C)[C@H]4O[C@]45OC(=O)[C@@](C)(O)[C@]35C)[C@@]2(C)[C@H]1OC(C)=O (some centres unmarked) [155G] | 8.4 |  |
| CC(=O)O[C@H]1[C@H]2[C@@H]([C@@H](O)[C@@H](NC(=O)CCCCCCn3cc(COc4cc5c(cc4F)C4(OC(=O)c6ccccc64)c4cc(F)c(O)cc4O5)nn3)[C@H]3C[C@@H]4O[C@@H]4[C@H](OC(C)=O)[C@]23C)[C@@H]2[C@@H](O)[C@@H]3[C@H]([C@H](C)[C@H]4O[C@]45OC(=O)[C@@](C)(O)[C@]35C)[C@@]2(C)[C@H]1OC(C)=O (some centres unmarked) [158E] | > 10 |  |
| CC(=O)O[C@H]1[C@H]2[C@@H]([C@@H](O)[C@@H](NC(=O)CCCCCCn3cc(COc4ccc5c(c4)Oc4cc(O)ccc4C54OC(=O)c5ccccc54)nn3)[C@H]3C[C@@H]4O[C@@H]4[C@H](OC(C)=O)[C@]23C)[C@@H]2[C@@H](O)[C@@H]3[C@H]([C@H](C)[C@H]4O[C@]45OC(=O)[C@@](C)(O)[C@]35C)[C@@]2(C)[C@H]1OC(C)=O (some centres unmarked) [158F] | 6 |  |
| CC(=O)Oc1ccc2c(c1)Oc1cc(OC(C)=O)ccc1C21OC(=O)c2cc(C(=O)NCCC(=O)N[C@@H]3[C@H](O)[C@H]4[C@@H]5[C@@H](O)[C@@H]6[C@H]([C@H](C)[C@H]7O[C@]78OC(=O)[C@@](C)(O)[C@]68C)[C@@]5(C)[C@@H](OC(C)=O)[C@@H](OC(C)=O)[C@@H]4[C@]4(C)[C@@H]3C[C@@H]3O[C@@H]3[C@@H]4OC(C)=O)ccc21 [162C] | 10 |  |
| CC(=O)O[C@H]1[C@H]2[C@@H]([C@@H](O)[C@@H](NC(=O)CCNC(=O)c3ccc4c(c3)C(=O)OC43c4ccc(OC(=O)C(C)(C)C)cc4Oc4cc(OC(=O)C(C)(C)C)ccc43)[C@H]3C[C@@H]4O[C@@H]4[C@H](OC(C)=O)[C@]23C)[C@@H]2[C@@H](O)[C@@H]3[C@H]([C@H](C)[C@H]4O[C@]45OC(=O)[C@@](C)(O)[C@]35C)[C@@]2(C)[C@H]1OC(C)=O [163D] | 2 |  |
| CC(=O)Oc1cc2c(cc1F)C1(OC(=O)c3cc(C(=O)NCCC(=O)N[C@@H]4[C@H](O)[C@H]5[C@@H]6[C@@H](O)[C@@H]7[C@H]([C@H](C)[C@H]8O[C@]89OC(=O)[C@@](C)(O)[C@]79C)[C@@]6(C)[C@@H](OC(C)=O)[C@@H](OC(C)=O)[C@@H]5[C@]5(C)[C@@H]4C[C@@H]4O[C@@H]4[C@@H]5OC(C)=O)ccc31)c1cc(F)c(OC(C)=O)cc1O2 [163E] | > 10 |  |
| CC(=O)O[C@H]1[C@H]2C([C@@H](O)[C@@H](NC(=O)c3ccc4c(c3)C(=O)OC43c4ccc(OC(=O)C(C)(C)C)cc4Oc4cc(OC(=O)C(C)(C)C)ccc43)[C@H]3C[C@@H]4O[C@@H]4[C@H](OC(C)=O)[C@@]32C)[C@@H]2[C@@H](O)[C@@H]3[C@H]([C@H](C)[C@H]4O[C@]45OC(=O)[C@@](C)(O)[C@]35C)[C@@]2(C)[C@H]1OC(C)=O (some centres unmarked) [164B] | 0.031 |  |
| CC(=O)O[C@H]1[C@H]2[C@@H]([C@@H](O)[C@@H](NC(=O)CNC(=O)c3ccc4c(c3)C(=O)OC43c4ccc(OC(=O)C(C)(C)C)cc4Oc4cc(OC(=O)C(C)(C)C)ccc43)[C@H]3C[C@@H]4O[C@@H]4[C@H](OC(C)=O)[C@]23C)[C@@H]2[C@@H](O)[C@@H]3[C@H]([C@H](C)[C@H]4O[C@]45OC(=O)[C@@](C)(O)[C@]35C)[C@@]2(C)[C@H]1OC(C)=O [164E] | 0.74 |  |
| CC(=O)O[C@H]1[C@H]2[C@@H]([C@@H](O)[C@@H](NC(=O)CCCn3cc(CCC(=O)NCCCC[C@@H](NC(=O)[C@H](Cc4ccc(O)cc4)NC(=O)[C@H](CO)NC(=O)[C@H](Cc4c[nH]c5ccccc45)NC(=O)[C@H](Cc4c[nH]cn4)NC(=O)[C@@H]4CCC(=O)N4)C(=O)N[C@@H](CC(C)C)C(=O)N[C@@H](CCCNC(=N)N)C(=O)N4CCC[C@H]4C(=O)NCC(N)=O)nn3)[C@H]3C[C@@H]4O[C@@H]4[C@H](OC(C)=O)[C@]23C)[C@@H]2[C@@H](O)[C@@H]3[C@H]([C@H](C)[C@H]4O[C@]45OC(=O)[C@@](C)(O)[C@]35C)[C@@]2(C)[C@H]1OC(C)=O [171B] | 2.6 |  |
| O=C(O)c1ccccc1-c1c2cc(F)c(=O)cc-2oc2cc(O)c(F)cc12 [Oregon Green, Oregon green] |  | 4.8 |
| O=C1OC2(c3ccc(O)cc3Oc3cc(O)ccc32)c2ccccc21 [fluorescein] |  | 6.5 |
